Assay results taken from patent US11530220B2, “Substituted imidazo[1,5-a]pyrazines and [1,2,4]triazolo[4,3-a]pyrazines for the modulation of AhR” (IDEAYA BIOSCIENCES, INC., priority 2018, dated 2022).
pIC50: −log10 of the molar value. Where two headings read alike, the source gives them in different places.

Molecular target: T1, hAhR (Homo sapiens, UniProt P35869)
T1 construct: Stably integrated DRE-luciferase cell lines were generated by transducing the both cell lines with Cignal XRE luciferase reporter (Qiagen) lentiviral particles; endogenous in cells; host or cells: HEPG2 (human hepatoma) with stably integrated XRE/DRE-luciferase reporter
T1 sequence (P35869 11-848): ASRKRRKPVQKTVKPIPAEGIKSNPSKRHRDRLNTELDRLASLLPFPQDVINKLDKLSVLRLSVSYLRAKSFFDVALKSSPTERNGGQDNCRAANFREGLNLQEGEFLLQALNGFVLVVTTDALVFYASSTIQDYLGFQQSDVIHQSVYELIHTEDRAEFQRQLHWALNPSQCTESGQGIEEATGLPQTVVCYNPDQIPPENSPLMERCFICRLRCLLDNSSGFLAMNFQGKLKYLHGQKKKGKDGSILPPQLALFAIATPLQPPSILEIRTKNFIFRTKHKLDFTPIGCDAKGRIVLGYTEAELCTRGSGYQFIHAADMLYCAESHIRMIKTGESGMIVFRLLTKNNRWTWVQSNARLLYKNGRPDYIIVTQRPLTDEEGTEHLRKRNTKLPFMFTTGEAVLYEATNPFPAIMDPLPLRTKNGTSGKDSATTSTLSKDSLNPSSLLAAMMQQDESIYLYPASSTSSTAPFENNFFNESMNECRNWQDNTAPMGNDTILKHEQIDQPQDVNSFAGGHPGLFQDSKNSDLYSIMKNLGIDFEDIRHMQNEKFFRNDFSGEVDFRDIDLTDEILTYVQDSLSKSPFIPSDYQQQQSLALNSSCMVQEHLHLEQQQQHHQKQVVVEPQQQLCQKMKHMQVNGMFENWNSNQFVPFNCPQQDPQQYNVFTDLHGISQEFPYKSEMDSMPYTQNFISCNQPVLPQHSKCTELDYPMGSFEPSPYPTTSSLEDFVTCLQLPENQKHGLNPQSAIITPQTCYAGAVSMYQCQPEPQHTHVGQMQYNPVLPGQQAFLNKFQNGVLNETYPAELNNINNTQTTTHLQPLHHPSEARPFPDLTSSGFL
Experiment: DRE-luciferase transcriptional assay, antagonist mode, in HEPG2 DRE-Luc cells stimulated with TCDD
Assay type: cell-based
Conditions: for Emax: read-out: HEPG2 % Max Inhibition
Description: HEPG2 and HEPA1C1C7 cells were maintained in MEM and αMEM without nucleosides supplemented with 10% heat inactivated FBS respectively. Stably integrated DRE-luciferase cell lines were generated by transducing the both cell lines with Cignal XRE luciferase reporter (Qiagen) lentiviral particles according to the manufacturer protocol. For both cell lines stably integrated reporter cell lines were selected for the presence of 2 μg/mL puromycin. Following selection of stably integrated cell line pools, clonal cell lines were isolated by limiting dilution in 96-well plates. Transcriptional assays were performed by seeding 100 μL of cells at a density of 250,000 or 100,000 cells/mL, for HEPG2 and HEPA1C1C7 DRE-Luc cells respectively, into 96-well cell culture plates in OptiMEM supplemented with 0.5% heat inactivated FBS and allowed to attach overnight. For antagonist assays, the compounds were added in a semi-log dose response using a D300e Digital Dispenser (Tecan) followed normalization with vehicle (DMSO). Immediately following compound addition […] of 2,3,7,8-Tetrachlorodibenzo-p-dioxin (TCDD) was added to the cells to a final concentration of 3 nM or 0.3 nM for the HEPG2 and HEPA1C1C7 DRE-Luc cells respectively. Following 24 h incubation the medium was removed and the cells were lysed in 25 μL of Reporter Lysis Buffer (Promega). Firefly luciferase activity was measured immediately following the addition of 50 μL Luciferase Assay Reagent (Promega). The percent maximal activity for each point was determined using the following equation: 100−(RLUsample−RLUvehicle−TCDD)/(RLUvehicle+TCDD RLUvehicle−TCDD)*100. The relative IC50, defined as the compound concentration required to reduce the TCDD induced response between the top and bottom plateau of each individual dose response curve by half, for each compound was determined using Prism 7 (GraphPad Software).

[1] = HEPG2 DRE-Luc cells, 3 nM TCDD, 24 h incubation
[2] = HEPG2 DRE-Luc cells, 3 nM TCDD, 24 h incubation, relative IC50, read-out: IC50 hAhR (antagonist mode)

Structure (SMILES)	Emax [1] [%]	pIC50 [2]	Emax (HepG2, 24 h) [%]	pIC50
CC(C)c1cnc2c(NCCn3c(=O)[nH]c4ccccc43)nc(-c3cncc(F)c3)cn12 [Example 19]	100	> 6.70		
CC(C)c1cnc2c(NCCc3n[nH]c4ccccc34)nc(-c3cncc(F)c3)cn12 [Example 20]	100	> 6.70		
CC(CO)c1cnc2c(NCCc3c[nH]c4cccc(F)c34)nc(-c3cncc(F)c3)cn12 (stereo not drawn) [Example 21, 2-(6-(5-fluoro-(3-pyridyl))-8-{[2-(4-fluoroindol-3-yl)ethyl]amino}-4-hydroimidazo[1,2-a]pyrazin-3-yl)propan-1-ol]		> 6.70	100	
CC(C)c1cnc2c(NCCc3c[nH]c4cccc(F)c34)nc(-c3cncc(F)c3)cn12 [Example 24]		> 6.70	100	
CC(C)c1cnc2c(NCCc3c[nH]c4cccc(F)c34)nc(-c3cnn(C)c3)cn12 [Example 25, [2-(4-fluoroindol-3-yl)ethyl][3-isopropyl-6-(1-methylpyrazol-4-yl)(4-hydroimidazo[1,2-a]-pyrazin-8-yl)]amine]	100	> 6.70		
Cc1ncc(-c2cn3c(C(C)C)cnc3c(NCCc3c[nH]c4cccc(F)c34)n2)cc1F [Example 26]	98	6.30 to 6.70		
Cc1ncc(-c2cn3c(C(C)C)cnc3c(NCCc3c[nH]c4cccc(F)c34)n2)cn1 [Example 27, [2-(4-fluoroindol-3-yl)ethyl][3-isopropyl-6-(2-methylpyrimidin-5-yl)(4-hydroimidazo[1,2-a]pyrazin-8-yl)]amine]	100	6.30 to 6.70		
CC(C)c1cnc2c(NCc3cccc4[nH]ccc34)nc(-c3cncc(F)c3)cn12 [Example 28]	33	6.00 to 6.30		
CC(C)c1cnc2c(NCCn3ccc4ccccc43)nc(-c3cncc(F)c3)cn12 [Example 29]			100	6.00 to 6.30
CC(C)c1cnc2c(NCCn3cnc4ccccc43)nc(-c3cncc(F)c3)cn12 [Example 30, (2-benzimidazolylethyl)[6-(5-fluoro(3-pyridyl))-3-isopropyl(4-hydroimidazo[1,2-a]pyrazin-8-yl)]amine]		5.00 to 6.00	94	

The next lines start with results.

Emax [1] [%]	pIC50 [2]	Structure (SMILES)	Emax (HepG2, 24 h) [%]	pIC50
83	5.00 to 6.00	Cc1nccn1-c1cn2c(C(C)C)cnc2c(NCCc2c[nH]c3ncccc23)n1 [Example 16, [3-isopropyl-6-(2-methylimidazolyl)(4-hydroimidazo[1,2-a]pyrazin-8-yl)](2-pyrrolo[2,3-b]pyridin-3-ylethyl)amine]		
100	6.00 to 6.30	Cc1nccn1-c1cn2c(C(C)C)cnc2c(N[C@H](C)Cc2c[nH]c3ccccc23)n1 [Example 17a]		
81.3	5.00 to 6.00	Cc1nccn1-c1cn2c(C(C)C)cnc2c(N[C@@H](C)Cc2c[nH]c3ccccc23)n1 [Example 17b, ((1S)-2-indol-3-yl-isopropyl)[3-isopropyl-6-(2-methylimidazolyl)(4-hydroimidazo[1,2-a]-pyrazin-8-yl)]amine]		
77	5.00 to 6.00	Cc1nccn1-c1cn2c(C(C)C)cnc2c(NCCc2cc[nH]c2)n1 [Example 18, [3-isopropyl-6-(2-methylimidazolyl)(4-hydroimidazo[1,2-a]pyrazin-8-yl)](2-pyrrol-3-ylethyl)amine]		
100	> 6.70	Cc1nccn1-c1cn2c(C(C)C)cnc2c(NCCc2c[nH]c3cc(F)cc(F)c23)n1 [Example 22, [2-(4,6-difluoroindol-3-yl)ethyl][3-isopropyl-6-(2-methylimidazolyl)(4-hydroimidazo[1,2-a]pyrazin-8-yl)]amine]		
12	5.00 to 6.00	Cc1nccn1-c1cn2c(C(C)C)cnc2c(NCc2cccc(C(N)=O)c2)n1 [Example 23, 3-({[3-isopropyl-6-(2-methylimidazolyl)-4-hydroimidazo[1,2-a]pyrazin-8-yl]amino}-methyl)benzamide]		
31	5.00 to 6.00	Cc1nccn1-c1cn2c(C(C)C)cnc2c(NCc2ccc(C(N)=O)cc2)n1 [Example 31, 4-({[3-isopropyl-6-(2-methylimidazolyl)-4-hydroimidazo[1,2-a]pyrazin-8-yl]amino}methyl)benzamide]		
100	6.30 to 6.70	Cc1nccn1-c1cn2c(C(C)C)cnc2c(OCCc2c[nH]c3ccccc23)n1 [Example 32, 8-(2-indol-3-ylethoxy)-3-(methylethyl)-6-(2-methylimidazolyl)-4-hydroimidazo[1,2-a]pyrazine]		
